Data published in ChEMBL document CHEMBL2028040, “Malaria Box”.

Experiments:
Plasmodium falciparum [1] = assay: MMV: Inhibition of Plasmodium falciparum K1 (EC50).; format: functional, organism-based
Plasmodium falciparum [2] = assay: MMV: Inhibition of Plasmodium falciparum 3D7 (EC50).; format: functional, organism-based
Trypanosoma cruzi = assay: MMV: Inhibition of Trypanosoma cruzi (Tulahuen C4 LacZ) (Chagas in vitro).; format: functional, organism-based
[3] = test system: Trypanosoma brucei rhodesiense; assay: MMV: Inhibition of Trypanosoma brucei rhodesiense (STIB 900) (HAT in vitro).; format: functional, organism-based
Leishmania infantum = assay: MMV: Inhibition of Leishmania infantum (MHOM/MA/BE/67) in vitro.; format: functional, organism-based
Plasmodium falciparum [4] = assay: MMV: Inhibition of Plasmodium falciparum 3D7 at 5uM compound concentration.; format: functional
[5] = test system: Trypanosoma brucei brucei; assay: MMV: Inhibition of Trypanosoma brucei brucei (Squib 427) (HAT in vitro).; format: functional, organism-based
[6] = MMV: Cytotoxicity against human fibroblasts (MRC-5) cells.; conditions: MRC-5 cells (human fibroblasts)

SMILES	EC50 (Plasmodium falciparum [1]) [µM]	EC50 (Plasmodium falciparum [2]) [µM]	IC50 (Trypanosoma cruzi) [µM]	IC50 [3] [µM]	IC50 (Leishmania infantum) [µM]	IC50 [5] [µM]	inhibition at 5 µM (Plasmodium falciparum [4]) [%]	IC50 [6] [µM]
CCC1(C)CC(CCNCc2ccccc2O)(c2ccc(C)cc2)CCO1 (stereo not drawn)	0.0372	0.142	15.7	1.01	4.32	3.05	97	16.1
OC1=C2C(=Nc3ccccc3SC2c2ccc(Br)cc2)c2ccccc21 (stereo not drawn)	0.961	0.567	3.62	2.66	4.32	4.09	97	> 32
CCOC(=O)C1=CN(C)C=C(C(=O)OCC)C1c1cc(Br)c(OCC)c(OC)c1	0.945	0.518	13.6	13.9	> 32	15.7	97	> 32
CCC(c1ccccc1)c1nn2c(-c3cccs3)nnc2s1 (stereo not drawn)	0.916	0.259	4.09	13.1	12	16.1	99	> 32
OC(CNC1CCCCC1)Cn1c2ccccc2c2ccccc21 (stereo not drawn)	1.17	0.293	> 32	4.03	16.6	4.15	93	> 32
Cc1ccnc(NC(c2cccc(OCc3ccccc3)c2)c2ccc3cccnc3c2O)c1 (stereo not drawn)	1.02	1.02	1.05	1	4.06	1.2	97	2
Cc1ccc(N2C3c4ccccc4N(S(=O)(=O)c4ccc(C)cc4)C2c2ccccc2N3S(=O)(=O)c2ccc(C)cc2)cc1	0.0276	0.0248	> 32	16.5	16.2	> 32	97	> 32
CCc1c(C)c(=N)c2ccccc2n1C	0.994	0.378	3.06	> 32	> 32	> 32	76	6.89
O=C(Nc1ccc(C23CC4CC(CC(c5ccccc5)(C4)C2)C3)cc1)c1cccs1	1.27	0.826	> 32	> 32	> 32	> 32	96	> 32
CC1CCCCN1CCCNC(=O)c1ccc2c(c1)sc1nc(-c3ccc(F)cc3)cn12 (stereo not drawn)	1.13	0.648	4.14	1.19	1.08	3.79	98	10.4
COc1ccc(C2Sc3ccccc3N=C3C2=C(O)c2ccccc23)cc1 (stereo not drawn)	1.93	0.845	4.51	3.54	4.76	4	96	> 32
COc1ccc(C=C2SC(Nc3ccc(F)cc3)=NC2=O)c(OC)c1	0.825	0.591	> 32	> 32	> 32	> 32	92	> 32
CN(C)CCCNc1c2ccccc2nc2ccccc12	1.56	0.235	1	< 0.125	1.01	< 0.125	95	2.86
CCN(CC)S(=O)(=O)c1ccc(-c2csc(Nc3ccc(C)c(C)c3)n2)cc1	1.04	0.641	> 32	> 32	16.2	> 32	97	> 32
O=C(Nc1nc(-c2ccccn2)cs1)c1ccccc1Br	1.58	1.36	0.26	0.376	1.59	1.04	97	–

Continued, in another order:

EC50 (Plasmodium falciparum [1]) [µM]	EC50 (Plasmodium falciparum [2]) [µM]	IC50 (Trypanosoma cruzi) [µM]	IC50 [3] [µM]	IC50 (Leishmania infantum) [µM]	IC50 [5] [µM]	SMILES	inhibition at 5 µM (Plasmodium falciparum [4]) [%]	IC50 [6] [µM]
0.182	0.676	16.9	4.7	17.3	16.1	O=C(CCc1ccccc1)c1ccccc1OCC(O)CN1CCCCC1 (stereo not drawn)	97	> 32
0.114	0.205	> 32	> 32	16.2	> 32	CCOC(=O)c1c(NC(=O)c2ccccc2)sc2c(O)c(CN(CC)CC)ccc12	96	> 32
0.362	0.407	0.954	0.972	1.59	1.02	CCCOCc1cc(CN2CCN(c3cccc(Cl)c3)CC2)c(O)c2ncccc12	97	1.67
0.107	0.362	17.7	5.04	> 32	10.1	CC(C)(C)c1ccc2c(c1)CN(Cc1ccc(Cl)cc1)CO2	98	> 32
0.239	0.66	14	1.01	5.38	1.02	OC(CNC1CCCC1)Cn1c2ccccc2c2ccccc21 (stereo not drawn)	97	18.8
0.168	0.683	> 32	4.06	17.3	12.9	CCOc1cc2c(cc1OCC)C(c1cc(C)c(O)c(C)c1)NCC2 (stereo not drawn)	97	> 32
0.19	0.0726	> 32	> 32	> 32	> 32	COc1ccccc1CNC(=O)CCn1c(=O)[nH]c2ccccc2c1=O	64	> 32
0.0739	0.0367	> 32	4.32	> 32	16.1	COc1ccc(NC(=O)C2c3ccccc3C(=O)N(CC(C)C)C2c2cccs2)cc1 (stereo not drawn)	100	> 32
0.6	0.118	1.53	> 32	16.2	> 32	CCOC(=O)c1ccc2nc(-c3ccccc3)cc(O)c2c1	96	7.58
0.268	0.548	14	15.8	16	14.8	Oc1ccccc1CN1CCC2(CCCN(Cc3ccccc3F)C2)C1 (stereo not drawn)	98	> 32
0.0272	0.0515	> 32	3.06	> 32	> 32	CN(C)c1ccc(C=Cc2nc(=O)c3ccccc3o2)cc1	96	> 32
0.243	0.603	> 32	16	> 32	> 32	CC(NCc1ccccc1)c1cc(Cl)ccc1O (stereo not drawn)	95	> 32
0.4	0.18	1.12	1.06	> 32	4.06	COc1ccc(Br)cc1C1Nc2ccc3ccccc3c2C2=C1C(=O)CC(c1ccccc1)C2 (stereo not drawn)	95	> 32
0.55	0.52	0.432	> 32	16.2	16.9	COc1ccc2c(=O)cc(C(Cl)(Cl)Cl)oc2c1	94	7.58
0.172	0.135	15.4	15.3	16.2	16.1	CSC1=NC(=Nc2c(C)cccc2C)C2(CCC(C(C)(C)C)CC2)N1c1ccc(Cl)cc1 (stereo not drawn)	96	> 32
0.666	0.263	> 32	> 32	25.4	> 32	Cc1cc(C=C2SC(=Nc3ccccc3)N(C3CCCC3)C2=O)c(C)n1-c1ccc(Cl)cc1	97	> 32
0.54	0.782	2.62	1.15	> 32	4.09	COc1cc(C(=O)ON=C(N)Cc2cccc3ccccc23)cc(OC)c1OC	99	5.66
0.7	1.14	3.78	0.942	2.54	1.01	CCCCCCn1c(=N)n(CC(O)COc2cccc(C)c2)c2ccccc21 (stereo not drawn)	98	4
0.0391	0.0328	15.1	9.83	> 32	> 32	Cc1cc(NC(=O)C2c3ccccc3C(=O)N(CC(C)C)C2c2cccs2)no1 (stereo not drawn)	100	30.1
0.5	0.255	< 0.125	< 0.125	< 0.125	< 0.125	CN(C)c1ccc(C(O)(c2ccc(N(C)C)cc2)c2ccc(N(C)C)cc2)cc1 [METHYLROSANILINE]	96	0.354
0.0822	0.35	0.281	14.8	5.38	13.4	Cc1ccc(Nc2nc(-c3ccccn3)cs2)cc1	79	–
0.683	–	> 32	20.8	> 32	> 32	Cc1cc(=O)oc2c1ccc1oc(C(=O)c3ccccc3)c(C)c12	94	6.35
